Measured values published in PubChem BioAssay AID248 (DTP/NCI, 2004).
Where “and” joins values, the source holds several entries; their conditions need not be identical. Equal values may be shown once. Inconclusive results and toxic doses are left out.

System: L1210 leukemia ip in BDF1 mice, survival T/C
Assay: NCI In Vivo Anticancer Drug Screen. Data for tumor model L1210 Leukemia (intraperitoneal) in B6D2F1 (BDF1) mice
Details: endpoint: mean survival time, higher = longer survival
Method in brief: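 Tumor cells were implanted, animals were treated, and survival was followed. The result divides the treated measurement by the vehicle-control measurement.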

## NC(CSC(c1ccccc1)(c1ccccc1)c1ccccc1)C(=O)O (stereo not given)
dose: 1.0 mg/kg/injection, schedule: Q01DX Z (ip), vehicle: carboxymethylcellulose (CMC)
  T/C: 97 % of control and 102 % of control
dose: 1.0 mg/kg/injection, schedule: Q01DX Z (ip), vehicle: other
  T/C: 109 % of control
dose: 1.0 mg/kg/injection, schedule: Q01DX Z (ip), vehicle: saline
  T/C: 109 % of control
dose: 1.95 mg/kg/injection, schedule: Q03HX006 (iv), vehicle: clinical formulation
  T/C: 106 % of control
dose: 3.9 mg/kg/injection, schedule: Q03HX006 (iv), vehicle: clinical formulation
  T/C: 101 % of control
dose: 4.0 mg/kg/injection, schedule: Q03HX024 (oral), vehicle: water
  T/C: 107 % of control
dose: 4.1 mg/kg/injection, schedule: Q03HX024 (ip), vehicle: clinical formulation
  T/C: 107 % of control
dose: 4.1 mg/kg/injection, schedule: Q03HX024 (ip), vehicle: saline
  T/C: 114 % of control
dose: 4.1 mg/kg/injection, schedule: Q03HX024 (ip), vehicle: water
  T/C: 111 % of control
dose: 4.4 mg/kg/injection, schedule: Q03HX024 (ip), vehicle: water
  T/C: 106 % of control
dose: 5.0 mg/kg/injection, schedule: Q01DX Z (ip), vehicle: carboxymethylcellulose (CMC)
  T/C: 108 % of control and 123 % of control
dose: 5.0 mg/kg/injection, schedule: Q01DX Z (ip), vehicle: other
  T/C: 115 % of control
dose: 5.0 mg/kg/injection, schedule: Q01DX Z (ip), vehicle: saline
  T/C: 117 % of control
dose: 5.4 mg/kg/injection, schedule: Q03HX024 (ip), vehicle: saline
  T/C: 111 % of control
dose: 6.0 mg/kg/injection, schedule: Q03HX024 (oral), vehicle: water
  T/C: 118 % of control
dose: 6.25 mg/kg/injection, schedule: Q01DX015 (oral), vehicle: saline
  T/C: 108 % of control
dose: 6.25 mg/kg/injection, schedule: Q01DX015 (sc), vehicle: saline
  T/C: 105 % of control
dose: 6.6 mg/kg/injection, schedule: Q03HX024 (ip), vehicle: water
  T/C: 124 % of control
dose: 7.2 mg/kg/injection, schedule: Q03HX024 (ip), vehicle: clinical formulation
  T/C: 124 % of control
dose: 7.81 mg/kg/injection, schedule: Q03HX006 (iv), vehicle: clinical formulation
  T/C: 103 % of control
dose: 7.81 mg/kg/injection, schedule: Q03HX012 (ip), vehicle: clinical formulation
  T/C: 108 % of control
dose: 7.81 mg/kg/injection, schedule: Q03HX012 (ip), vehicle: water
  T/C: 121 % of control
dose: 8.75 mg/kg/injection, schedule: Q03HX008 (ip), vehicle: other
  T/C: 113 % of control
dose: 9.0 mg/kg/injection, schedule: Q03HX024 (oral), vehicle: clinical formulation
  T/C: 105 % of control
dose: 9.0 mg/kg/injection, schedule: Q03HX024 (oral), vehicle: saline
  T/C: 105 % of control
dose: 9.0 mg/kg/injection, schedule: Q03HX024 (oral), vehicle: water
  T/C: 115 % of control
dose: 10.0 mg/kg/injection, schedule: Q01DX Z (ip), vehicle: carboxymethylcellulose (CMC)
  T/C: 119 % of control
dose: 12.5 mg/kg/injection, schedule: Q01DX009 (ip), vehicle: clinical formulation
  T/C: 116 % of control
dose: 12.5 mg/kg/injection, schedule: Q01DX009 (ip), vehicle: other
  T/C: 123 % of control
dose: 12.5 mg/kg/injection, schedule: Q01DX009 (ip), vehicle: water
  T/C: 116 % of control
dose: 12.5 mg/kg/injection, schedule: Q01DX015 (ip), vehicle: saline
  T/C: 151 % of control
dose: 12.5 mg/kg/injection, schedule: Q01DX015 (oral), vehicle: saline
  T/C: 114 % of control
dose: 12.75 mg/kg/injection, schedule: Q03HX024 (ip), vehicle: water
  T/C: 119 % of control
dose: 14.0 mg/kg/injection, schedule: Q03HX024 (oral), vehicle: clinical formulation
  T/C: 122 % of control
dose: 15.62 mg/kg/injection, schedule: Q03HX006 (iv), vehicle: clinical formulation
  T/C: 103 % of control
dose: 15.62 mg/kg/injection, schedule: Q03HX012 (ip), vehicle: water
  T/C: 152 % of control
dose: 16.87 mg/kg/injection, schedule: Q03HX024 (ip), vehicle: other
  T/C: 151 % of control
dose: 17.0 mg/kg/injection, schedule: Q01DX009 (ip), vehicle: other
  T/C: 109 % of control
dose: 17.5 mg/kg/injection, schedule: Q01DX005 (ip), vehicle: other
  T/C: 114 % of control
dose: 17.5 mg/kg/injection, schedule: Q01DX009 (ip), vehicle: other
  T/C: 113 % of control
dose: 17.5 mg/kg/injection, schedule: Q## X006 (ip), vehicle: other
  T/C: 116 % of control
dose: 22.5 mg/kg/injection, schedule: Q03HX024 (ip), vehicle: water
  T/C: 92 % of control
dose: 25.0 mg/kg/injection, schedule: Q01DX009 (ip), vehicle: clinical formulation
  T/C: 117 % of control
dose: 25.0 mg/kg/injection, schedule: Q01DX009 (ip), vehicle: other
  T/C: 119 % of control
dose: 25.0 mg/kg/injection, schedule: Q01DX009 (ip), vehicle: water
  T/C: 110 % of control
dose: 27.0 mg/kg/injection, schedule: Q03HX024 (oral), vehicle: clinical formulation
  T/C: 152 % of control
dose: 31.25 mg/kg/injection, schedule: Q03HX006 (iv), vehicle: clinical formulation
  T/C: 116 % of control
dose: 31.25 mg/kg/injection, schedule: Q03HX012 (ip), vehicle: clinical formulation
  T/C: 118 % of control
dose: 31.25 mg/kg/injection, schedule: Q03HX012 (ip), vehicle: water
  T/C: 118 % of control
dose: 35.0 mg/kg/injection, schedule: Q03HX008 (ip), vehicle: other
  T/C: 122 % of control
dose: 35.0 mg/kg/injection, schedule: Q03HX024 (ip), vehicle: other
  T/C: 107 % of control
dose: 35.0 mg/kg/injection, schedule: Q04DX003 (ip), vehicle: clinical formulation
  T/C: 96 % of control
dose: 35.0 mg/kg/injection, schedule: Q04DX003 (ip), vehicle: other
  T/C: 113 % of control
dose: 35.0 mg/kg/injection, schedule: Q## X006 (ip), vehicle: other
  T/C: 124 % of control
dose: 35.5 mg/kg/injection, schedule: Q01DX009 (ip), vehicle: other
  T/C: 107 % of control
dose: 47.0 mg/kg/injection, schedule: Q04DX003 (ip), vehicle: other
  T/C: 119 % of control
dose: 48.0 mg/kg/injection, schedule: Q03HX024 (oral), vehicle: clinical formulation
  T/C: 106 % of control
dose: 50.0 mg/kg/injection, schedule: Q01DX009 (oral), vehicle: other
  T/C: 123 % of control
dose: 50.0 mg/kg/injection, schedule: Q01DX Z (ip), vehicle: carboxymethylcellulose (CMC)
  T/C: 102 % of control
dose: 52.8 mg/kg/injection, schedule: Q03HX024 (ip), vehicle: clinical formulation
  T/C: 105 % of control
dose: 52.8 mg/kg/injection, schedule: Q04DX003 (ip), vehicle: clinical formulation
  T/C: 95 % of control and 105 % of control
dose: 70.0 mg/kg/injection, schedule: Q01DX001 (ip), vehicle: other
  T/C: 121 % of control
dose: 70.0 mg/kg/injection, schedule: Q03HX008 (ip), vehicle: other
  T/C: 101 % of control
dose: 70.0 mg/kg/injection, schedule: Q04DX003 (ip), vehicle: clinical formulation
  T/C: 107 % of control
dose: 70.0 mg/kg/injection, schedule: Q## X006 (ip), vehicle: other
  T/C: 121 % of control
dose: 78.0 mg/kg/injection, schedule: Q02DX005 (ip), vehicle: other
  T/C: 152 % of control
dose: 78.0 mg/kg/injection, schedule: Q04DX003 (ip), vehicle: other
  T/C: 114 % of control
dose: 78.0 mg/kg/injection, schedule: Q08DX002 (ip), vehicle: other
  T/C: 110 % of control
dose: 80.0 mg/kg/injection, schedule: Q03HX024 (ip), vehicle: clinical formulation
  T/C: 115 % of control
dose: 80.0 mg/kg/injection, schedule: Q04DX003 (ip), vehicle: clinical formulation
  T/C: 94 % of control and 108 % of control
dose: 100.0 mg/kg/injection, schedule: Q01DX009 (ip), vehicle: saline with Tween-80
  T/C: 108 % of control
dose: 100.0 mg/kg/injection, schedule: Q01DX009 (oral), vehicle: other
  T/C: 118 % of control
dose: 100.0 mg/kg/injection, schedule: Q01DX Z (ip), vehicle: other
  T/C: 115 % of control
dose: 100.0 mg/kg/injection, schedule: Q01DX Z (ip), vehicle: saline
  T/C: 150 % of control
dose: 100.0 mg/kg/injection, schedule: Q02DX005 (oral), vehicle: other
  T/C: 121 % of control
dose: 112.0 mg/kg/injection, schedule: Q03HX024 (oral), vehicle: clinical formulation
  T/C: 96 % of control
dose: 112.0 mg/kg/injection, schedule: Q03HX024 (oral), vehicle: saline
  T/C: 103 % of control
dose: 112.0 mg/kg/injection, schedule: Q04DX003 (ip), vehicle: clinical formulation
  T/C: 122 % of control
dose: 125.0 mg/kg/injection, schedule: Q02DX009 (ip), vehicle: other
  T/C: 97 % of control
dose: 130.0 mg/kg/injection, schedule: Q08DX002 (ip), vehicle: other
  T/C: 124 % of control
dose: 140.0 mg/kg/injection, schedule: Q01DX001 (ip), vehicle: other
  T/C: 118 % of control
dose: 150.0 mg/kg/injection, schedule: Q01DX Z (ip), vehicle: saline
  T/C: 109 % of control
dose: 160.0 mg/kg/injection, schedule: Q03HX024 (ip), vehicle: saline
  T/C: 110 % of control
dose: 240.0 mg/kg/injection, schedule: Q03HX024 (ip), vehicle: saline
  T/C: 92 % of control
dose: 250.0 mg/kg/injection, schedule: Q02DX009 (ip), vehicle: other
  T/C: 103 % of control
dose: 250.0 mg/kg/injection, schedule: Q02DX009 (oral), vehicle: other
  T/C: 121 % of control
dose: 250.0 mg/kg/injection, schedule: Q04DX005 (oral), vehicle: other
  T/C: 121 % of control
dose: 250.0 mg/kg/injection, schedule: Q08DX003 (oral), vehicle: other
  T/C: 111 % of control
dose: 280.0 mg/kg/injection, schedule: Q01DX001 (ip), vehicle: other
  T/C: 107 % of control
dose: 280.0 mg/kg/injection, schedule: Q04DX003 (ip), vehicle: saline
  T/C: 107 % of control
dose: 400.0 mg/kg/injection, schedule: Q01DX009 (oral), vehicle: other
  T/C: 120 % of control
dose: 500.0 mg/kg/injection, schedule: Q08DX003 (oral), vehicle: other
  T/C: 124 % of control
dose: 800.0 mg/kg/injection, schedule: Q08DX002 (oral), vehicle: other
  T/C: 113 % of control
dose: 1000.0 mg/kg/injection, schedule: Q02DX009 (oral), vehicle: other
  T/C: 112 % of control
dose: 2000.0 mg/kg/injection, schedule: Q08DX003 (oral), vehicle: other
  T/C: 151 % of control
